# According to ChEMBL document CHEMBL5325485, “Design, synthesis and biological evaluation of salicylanilides as novel allosteric inhibitors of human pancreatic lipase” (Bioorg Med Chem, 2023):
# Molecular target: T1, Pancreatic triacylglycerol lipase (Homo sapiens, UniProt P16233)
# T1 sequence (P16233 whole entry): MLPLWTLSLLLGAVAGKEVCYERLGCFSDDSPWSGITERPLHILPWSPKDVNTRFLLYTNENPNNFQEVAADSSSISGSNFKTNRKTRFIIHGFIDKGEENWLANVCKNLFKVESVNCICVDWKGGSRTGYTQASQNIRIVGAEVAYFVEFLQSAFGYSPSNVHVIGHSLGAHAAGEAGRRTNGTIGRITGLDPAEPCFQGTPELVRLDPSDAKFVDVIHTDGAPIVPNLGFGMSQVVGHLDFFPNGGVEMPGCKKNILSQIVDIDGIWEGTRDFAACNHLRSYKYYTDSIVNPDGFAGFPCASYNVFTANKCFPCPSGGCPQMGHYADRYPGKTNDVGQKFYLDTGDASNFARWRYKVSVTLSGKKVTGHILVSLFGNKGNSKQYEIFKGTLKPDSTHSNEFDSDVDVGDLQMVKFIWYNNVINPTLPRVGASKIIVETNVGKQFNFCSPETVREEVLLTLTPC
# Assay: Negative allosteric modulator activity at human Pancreatic lipase using DDAO-ol as fluorescent substrate preincubated for 3 mins followed by substrate addition measured after 20 mins by microplate reader assay
# Details: not given
row,Structure (SMILES),IC50
1,COc1ccc(Oc2ccc(NC(=O)c3ccccc3O)cc2)cc1,32.7 µM
2,Cc1ccccc1C(=O)Nc1ccc(Oc2ccc(Cl)cc2)c(Cl)c1,27.4 µM
3,O=C(Nc1ccc(Oc2ccc(Cl)cc2)c(Cl)c1)c1ccccc1Cl,15 µM
4,O=C(Nc1ccc(Oc2ccc(Cl)cc2)c(Cl)c1)c1cc(I)cc(I)c1O [RAFOXANIDE],2.52 µM
5,COc1cccc(O)c1C(=O)Nc1ccc(Oc2ccc(Cl)cc2)c(Cl)c1,26.3 µM
6,CCCOc1ccccc1C(=O)Nc1ccc(Oc2ccc(Cl)cc2)c(Cl)c1,18.3 µM
7,CCCCCCNc1ccc(C(=O)Nc2ccc(Oc3ccc(Cl)cc3)c(Cl)c2)c(O)c1,12.4 µM
8,Cc1ccc(Oc2ccc(NC(=O)c3ccccc3O)cc2)cc1,12 µM
9,O=C(Nc1ccc(Oc2ccccc2)cc1)c1ccccc1O,19.1 µM
10,O=C(Nc1ccc(Oc2ccc(Cl)cc2)c(Cl)c1)c1ccc(Cl)cc1O,12.4 µM
11,COc1ccccc1C(=O)Nc1ccc(Oc2ccc(Cl)cc2)c(Cl)c1,16.7 µM
12,O=C(Nc1ccc(Oc2ccc(Cl)cc2)c(Cl)c1)c1ccccc1F,23.7 µM
13,O=C(Nc1ccc(Oc2ccc(Cl)cc2)c(Cl)c1)c1ccccc1OC(F)(F)F,15.8 µM
14,O=C(Nc1ccc(Oc2ccc(Cl)cc2)cc1)c1ccccc1O,20.4 µM
15,O=C(Nc1ccc(O)cc1)c1ccccc1O [OSALMID],> 500 µM

# Second part, the compound after the results:
row,IC50,Structure (SMILES)
1,11.4 µM,O=C(Nc1ccc(Oc2ccc(F)cc2)c(F)c1)c1ccccc1O
2,11 µM,O=C(Nc1ccc(Oc2ccc(Cl)cc2)c(Cl)c1)c1ccccc1Br
3,10.5 µM,O=C(Nc1ccc(Oc2ccc(Cl)cc2)c(Cl)c1)c1ccccc1
4,10 µM,COc1ccc(C(=O)Nc2ccc(Oc3ccc(Cl)cc3)c(Cl)c2)c(O)c1
5,9.96 µM,O=C(Nc1ccc(Oc2ccccc2)c(Cl)c1)c1ccccc1O
6,9.24 µM,CC(C)Oc1ccc(Oc2ccc(NC(=O)c3ccccc3O)cc2)cc1
7,6.75 µM,O=C(Nc1ccc(Oc2ccc(Cl)cc2)c(Cl)c1)c1ccccc1O
8,6.27 µM,Nc1ccc(C(=O)Nc2ccc(Oc3ccc(Cl)cc3)c(Cl)c2)c(O)c1
9,5.99 µM,CCCNc1ccc(C(=O)Nc2ccc(Oc3ccc(Cl)cc3)c(Cl)c2)c(O)c1
10,4.27 µM,O=C(Nc1ccc(Oc2ccc(Cl)cc2)c(Cl)c1)c1ccc(F)cc1O
11,3.28 µM,CC(C)=CC[C@]12Oc3cc(O)c([C@H]4C=C(C)C[C@H](c5ccc(O)cc5O)[C@H]4C(=O)c4ccc(O)cc4O)c(O)c3C(=O)[C@@]1(O)Oc1cc(O)ccc12 [SANGGENON C]
12,2.13 µM,O=C(Nc1ccc(Oc2ccc(Cl)cc2)c(Cl)c1)c1cc(Br)cc(Br)c1O
13,1.86 µM,O=C(Nc1ccc(Oc2ccc(Cl)cc2)c(Cl)c1)c1cc(F)cc(F)c1O
14,1.63 µM,O=C(Nc1ccc(Oc2ccc(Cl)cc2)c(Cl)c1)c1cc(Cl)cc(Cl)c1O

# Molecular target: T1, Pancreatic triacylglycerol lipase
# Assay: Negative allosteric modulator activity at human Pancreatic lipase assessed as inhibition of PL-mediated DDAO-ol hydrolysis by measuring inhibition constant using DDAO-ol as fluorescent substrate by Lineweaver-Burk plot analysis
# Details: not given
row,Ki,Structure (SMILES)
1,1.67 µM,O=C(Nc1ccc(Oc2ccc(Cl)cc2)c(Cl)c1)c1cc(F)cc(F)c1O
2,1.7 µM,O=C(Nc1ccc(Oc2ccc(Cl)cc2)c(Cl)c1)c1cc(Cl)cc(Cl)c1O

# Molecular target: T2, Pancreatic triacylglycerol lipase (Homo sapiens) (UniProt P16233)
# T2 sequence (whole entry): T1 sequence (P16233 whole entry)
# Assay: Binding affinity to human Pancreatic lipase assessed as Stem-Volmer quenching constant by fluorescence quenching assay based spectrophotometer analysis
# Details: filed as negative allosteric modulator
row,KSV,Structure (SMILES)
1,3.61 10^6L/mol,O=C(Nc1ccc(Oc2ccc(Cl)cc2)c(Cl)c1)c1cc(F)cc(F)c1O
2,3.39 10^6L/mol,O=C(Nc1ccc(Oc2ccc(Cl)cc2)c(Cl)c1)c1cc(Cl)cc(Cl)c1O

# Molecular target: T2, Pancreatic triacylglycerol lipase (Homo sapiens)
# Assay: Binding affinity to human Pancreatic lipase assessed as quenching constant by fluorescence quenching assay based spectrophotometer analysis
# Details: filed as negative allosteric modulator
row,Kq,Structure (SMILES)
1,3.61 10^14L/mol/s,O=C(Nc1ccc(Oc2ccc(Cl)cc2)c(Cl)c1)c1cc(F)cc(F)c1O
2,3.39 10^14L/mol/s,O=C(Nc1ccc(Oc2ccc(Cl)cc2)c(Cl)c1)c1cc(Cl)cc(Cl)c1O

# Molecular target: T1, Pancreatic triacylglycerol lipase
# Assay: Inhibition of Pancreatic lipase (unknown origin) using 4-MUO as fluorescent substrate preincubated for 3 mins followed by substrate addition measured after 20 mins by microplate reader assay
# Details: not given
row,IC50,Structure (SMILES)
1,0.49 µM,CC1(C)CC[C@]2(C(=O)O)CC[C@]3(C)C(=CC[C@@H]4[C@@]5(C)CCC(=O)C(C)(C)[C@@H]5CC[C@]43C)[C@@H]2C1 [OLEANONIC ACID]
